Results as given in publication PMC12951562, “SH2scan: Mapping SH2 Domain-Ligand Binding Selectivity for Inhibitors and Degraders” (Journal of Medicinal Chemistry, 2026).
Like-named read-outs stand apart in the source and are kept apart here. Non-standard residues stand in square brackets, D forms with d. Residues, ends and D or L forms follow the SMILES beside them. *: point of attachment. pY = N[C@@H](Cc1ccc(OP(=O)(O)O)cc1)C(=O)O; Caffeoyl = O=C(/C=C/c1ccc(O)c(O)c1)*

Columns and labels:
Test in all cases: biochemical
Type in all cases: binding
GRB7 = biological target: T1, GRB7 (Homo sapiens, UniProt Q14451); details: for percent of DMSO vehicle control at 10 µM / remaining activity at 10 µM: read-out: percent of DMSO vehicle control
T1 construct: the DNA-tagged SH2 domain concentrations used in this study were <0.1 nM; made in house; host or cells: HEK293 (transient transfection; unpurified extract)
T1 sequence (Q14451 431-527 limits assumed): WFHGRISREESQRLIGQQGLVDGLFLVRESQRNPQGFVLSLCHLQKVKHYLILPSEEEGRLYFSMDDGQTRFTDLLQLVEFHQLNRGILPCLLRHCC

FGR = biological target: T2, FGR (Homo sapiens, UniProt P09769); details: for remaining activity at 10 µM: read-out: percent of DMSO vehicle control
T2 construct: the DNA-tagged SH2 domain concentrations used in this study were <0.1 nM; made in house; host or cells: HEK293 (transient transfection; unpurified extract)
T2 sequence (P09769 144-241 limits assumed): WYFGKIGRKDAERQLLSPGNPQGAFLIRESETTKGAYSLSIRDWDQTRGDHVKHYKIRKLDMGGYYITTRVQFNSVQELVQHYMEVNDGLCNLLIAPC

SOCS1 = biological target: T3, SOCS1 (Homo sapiens, UniProt O15524); details: for remaining activity at 10 µM: read-out: percent of DMSO vehicle control
T3 construct: made in house; host or cells: HEK293 (transient transfection), unpurified extract
T3 sequence (O15524 1-211): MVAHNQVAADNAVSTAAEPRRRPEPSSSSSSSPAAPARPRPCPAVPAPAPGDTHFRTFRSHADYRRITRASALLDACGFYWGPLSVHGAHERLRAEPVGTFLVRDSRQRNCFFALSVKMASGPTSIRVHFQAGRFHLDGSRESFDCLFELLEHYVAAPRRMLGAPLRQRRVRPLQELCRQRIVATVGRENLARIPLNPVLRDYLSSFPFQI

PLCG1(SH2dom.N-term.) = biological target: T4, PLCG1(SH2dom.N-term.) (Homo sapiens, UniProt P19174); details: for remaining activity at 10 µM: read-out: percent of DMSO vehicle control
T4 construct: SH2dom.N-term. denotes SH2 domain closest to N-terminus of protein; made in house; host or cells: HEK293 (transient transfection, unpurified extract)
T4 sequence (P19174 550-657 limits assumed): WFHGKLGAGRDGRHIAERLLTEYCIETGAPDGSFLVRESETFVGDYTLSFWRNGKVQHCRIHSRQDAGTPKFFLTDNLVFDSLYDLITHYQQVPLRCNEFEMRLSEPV

STAT6 = biological target: T5, STAT6 (Homo sapiens, UniProt P42226); details: for percent of DMSO vehicle control at 10 µM / remaining activity at 10 µM: read-out: percent of DMSO vehicle control
T5 construct: made in house; host or cells: HEK293 (transient transfection), unpurified extract
T5 sequence (P42226 1-847): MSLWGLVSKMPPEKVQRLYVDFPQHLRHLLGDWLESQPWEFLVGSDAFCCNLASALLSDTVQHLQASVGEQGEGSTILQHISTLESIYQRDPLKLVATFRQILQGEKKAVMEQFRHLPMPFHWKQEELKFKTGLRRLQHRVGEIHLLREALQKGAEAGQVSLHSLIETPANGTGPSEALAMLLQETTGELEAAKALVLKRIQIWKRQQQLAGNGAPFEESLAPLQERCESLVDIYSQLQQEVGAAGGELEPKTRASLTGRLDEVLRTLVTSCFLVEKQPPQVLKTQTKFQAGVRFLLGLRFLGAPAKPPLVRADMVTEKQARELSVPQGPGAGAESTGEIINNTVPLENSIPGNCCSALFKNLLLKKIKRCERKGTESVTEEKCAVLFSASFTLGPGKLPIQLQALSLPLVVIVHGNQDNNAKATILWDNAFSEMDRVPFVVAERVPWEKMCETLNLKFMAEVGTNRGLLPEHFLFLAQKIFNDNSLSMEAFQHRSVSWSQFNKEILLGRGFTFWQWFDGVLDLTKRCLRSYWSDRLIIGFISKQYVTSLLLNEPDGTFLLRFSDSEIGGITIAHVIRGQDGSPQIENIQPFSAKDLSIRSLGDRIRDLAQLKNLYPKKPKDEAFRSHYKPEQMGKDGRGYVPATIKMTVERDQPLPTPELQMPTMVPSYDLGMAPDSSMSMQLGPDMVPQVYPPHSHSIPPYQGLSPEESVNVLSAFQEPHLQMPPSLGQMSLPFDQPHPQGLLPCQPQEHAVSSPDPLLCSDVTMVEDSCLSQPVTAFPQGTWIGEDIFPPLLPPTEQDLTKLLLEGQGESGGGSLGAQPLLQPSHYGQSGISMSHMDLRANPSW

NCK2 = biological target: T6, NCK2 (Homo sapiens, UniProt O43639); details: for remaining activity at 10 µM: read-out: percent of DMSO vehicle control
T6 construct: the DNA-tagged SH2 domain concentrations used in this study were <0.1 nM; made in house; host or cells: HEK293 (transient transfection, unpurified extract)
T6 sequence (O43639 285-380 limits assumed): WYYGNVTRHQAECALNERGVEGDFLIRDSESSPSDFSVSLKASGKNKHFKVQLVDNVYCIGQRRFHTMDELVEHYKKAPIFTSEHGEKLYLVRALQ

Structure (SMILES) | percent of DMSO vehicle control at 10 µM (GRB7) | remaining activity at 10 µM (FGR) | remaining activity at 10 µM (SOCS1) | remaining activity at 10 µM (PLCG1(SH2dom.N-term.)) | percent of DMSO vehicle control at 10 µM (STAT6) | remaining activity at 10 µM (NCK2) | remaining activity at 10 µM (GRB7; primary screen, 10 μM) | remaining activity at 10 µM (FGR; primary screen, 10 μM) | remaining activity at 10 µM (SOCS1; primary screen, 10 μM) | remaining activity at 10 µM (PLCG1(SH2dom.N-term.); primary screen, 10 μM) | remaining activity at 10 µM (STAT6; primary screen, 10 μM) | remaining activity at 10 µM (NCK2; primary screen, 10 μM) | Kd (STAT6; dose-response, read-out: KD) | also measured
CC[C@H](C)[C@H](NC(=O)[C@H](CCC(=O)O)NC(=O)[C@H](CCC(=O)O)NC(=O)[C@H](Cc1ccc(OP(=O)(O)O)cc1)NC(C)=O)C(=O)N[C@@H](CCC(=O)O)C(N)=O [Ac-pYEEIE-NH2] (Ac-[pY]EEIE-NH2) | – | – | – | – | – | – | – | – | – | – | – | – | – | percent of DMSO vehicle control (GRB7; primary screen, 10 μM): 123.8%; percent of DMSO vehicle control (FGR; primary screen, 10 μM): 49.9±0.9%; percent of DMSO vehicle control (SOCS1; primary screen, 10 μM): 128.1%; percent of DMSO vehicle control (PLCG1(SH2dom.N-term.); primary screen, 10 μM): 42.1%; percent of DMSO vehicle control (STAT6; primary screen, 10 μM): 162.5%; percent of DMSO vehicle control (NCK2; primary screen, 10 μM): 74.9%
CC(=O)N[C@@H](Cc1ccc(CP(=O)(O)O)cc1)C(=O)NC1(C(=O)N[C@@H](CC(N)=O)C(=O)NCCCc2c(O)ccc3ccccc23)CCCCC1 [CGP78850] | 0% | 43.3 ± 1.3% | 129 ± 11.7% | 109 ± 14.6% | 104 ± 11% | 111 ± 23.7% | – | – | – | – | – | – | – | Kd (GRB7): 0.0052 µM
CC[C@H](C)[C@H](NC(=O)[C@H](CCC(=O)O)NC(=O)[C@H](CCC(=O)O)NC(=O)[C@H](Cc1ccc(OP(=O)(O)O)cc1)NC(=O)/C=C/c1ccc(O)c(O)c1)C(=O)N[C@@H](CCC(=O)O)C(=O)O [Caffeic acid-pYEEIE] (Caffeoyl-[pY]EEIE-OH) | 0.2 ± 0.1% | 0% | 1.1 ± 0.1% | 0.3% | 103 ± 16.9% | 2.8 ± 3.1% | – | – | – | – | – | – | – | Kd (GRB7): 6.1 ± 0.32 µM; Kd (FGR): 0.0027 ± 0.0053 µM; Kd (SOCS1): 0.03 ± 0.0065 µM; Kd (PLCG1(SH2dom.N-term.)): 0.18 ± 0.2 µM; Kd (NCK2): 0.21 ± 0.059 µM
O=C(CCl)Nc1cccc(CNC(=O)[C@H](Cc2ccc(OP(=O)(O)O)cc2)NC(=O)Cc2ccc(F)cc2)c1 [MN551] | – | – | – | – | – | – | 71.3 ± 3.5% | 49.8% | 38.1 ± 7.5% | 62.8 ± 3.8% | 37.2% | 81.5 ± 3% | – | –
NC(=O)CC[C@H](NC(=O)[C@@H]1CC[C@@H]2CCN(C(=O)CCCCCC#Cc3cccc4c3CN(C3CCC(=O)NC3=O)C4=O)C[C@H](NC(=O)c3cc4cc(C(F)(F)P(=O)(O)O)ccc4[nH]3)C(=O)N21)C(=O)NC(c1ccccc1)c1ccccc1 (stereo partly shown) [SD-36] | 66.9 ± 4.6% | 82 ± 28% | 132 ± 8.8% | 91.3 ± 4.5% | 4.2 ± 0.1% | 80 ± 38.4% | – | – | – | – | – | – | – | Kd (STAT6; dose-response): 1.07 ± 0.74 µM
CC(=O)N1CC[C@H]2CC[C@@H](C(=O)N[C@@H](CCC(N)=O)C(=O)NC(c3ccccc3)c3ccccc3)N2C(=O)[C@@H](NC(=O)c2cc3cc(C(F)(F)P(=O)(O)O)ccc3[nH]2)C1 [SI-109] | 135% | 128% | 103% | 130% | 44.5 ± 2.9% | 121% | – | – | – | – | – | – | – | Kd (STAT6): 1.4 ± 0.00015 µM
C/C(=C\C(=O)N[C@H](C(=O)N1CCC[C@H]1C(=O)N(c1ccccc1)c1ccc(I)cc1)C(C)(C)C)c1ccc(OP(=O)(O)O)cc1 [STAT6-IN-1] | – | – | – | – | – | – | 47.7 ± 4.2% | 20.7 ± 23.8% | 98.5 ± 3.5% | 0.3 ± 0.1% | 0% | 66.2 ± 8.2% | 0.00068 µM | Kd (FGR; dose-response, read-out: KD): 2.3 ± 0.55 µM; Kd (PLCG1(SH2dom.N-term.); dose-response, read-out: KD): 0.89 ± 0.72 µM
CC(C)(C)[C@H](NC(=O)/C=C/c1ccc(OP(=O)(O)O)cc1)C(=O)N1CCC[C@H]1C(=O)N(c1ccccc1)c1ccc(I)cc1 [STAT6-IN-3] | – | – | – | – | – | – | 81.2 ± 4.6% | 32.1 ± 40.1% | 95.9 ± 35.6% | 32.7 ± 14.4% | 0% | 102 ± 68.4% | 0.0086 µM | KD (FGR; dose-response): No Hit; Kd (PLCG1(SH2dom.N-term.); dose-response, read-out: KD): 3.7 ± 0.33 µM
O=C(COc1ccc2cc(C(=O)Nc3ccccc3)ccc2c1)NCc1ccc(OP(=O)(O)O)c(OP(=O)(O)O)c1 [Stafib-1] | – | – | – | – | – | – | 57.9 ± 22.2% | 34.3% | 156% | 82.6 ± 20.2% | 18.2% | 91.4 ± 35.1% | 7.3 ± 2.3 µM | KD (FGR; dose-response): No Hit
